Structures are written as SMILES.

As usually defined, the EC50 is the concentration at which the effect is half-maximal.

The subject of this experiment is HBV replication in HepG2.cl42 cells. Put plainly: Anti-HBV assay (HBV DNA by quantitative real time PCR in HepG2.cl42 cells). Format: cell-based, HBV ayw strain. The note with it: Hepatitis B virus, 96 h, compound treatment four days, read-out: HBsAg EC50.
Consider `COC[C@@H]1CN(c2cnn3c2CN(C(=O)c2cc4ccccc4[nH]2)CC3)C(=O)CO1` [Compound 1.3], for which the concentration giving a half-maximal response (EC50) was 100 to 1000 nM. With `CC1(C)CN(c2cnn3c2CN(C(=O)c2cc4cccc(F)c4[nH]2)CC3)C(=O)O1` [Compound 2.17] the figure was 100 to 1000 nM; with `C[C@H]1Cn2ncc(N3CC(C)(C)OC3=O)c2CN1C(=O)c1cc2ccccc2[nH]1` [Compound 2.23], over 1000 nM; with `O=C(c1cc2ccccc2[nH]1)N1CCn2ncc(N3CCOCC3=O)c2C1` [Compound 1.4], 100 to 1000 nM. With `Cc1cccc2cc(C(=O)N3CCn4ncc(N5CC(C)(C)OC5=O)c4C3)[nH]c12` [Compound 2.18] the figure was 100 to 1000 nM; with `O=C(c1cc2ccccc2[nH]1)N1CCn2ncc(N3CCCCC3=O)c2C1` [Compound 1.6], 100 to 1000 nM.

As for `CCc1c(C(=O)N2CCn3ncc(N4CC(C)(C)OC4=O)c3C2)[nH]c2ccccc12` [Compound 2.3], the EC50 is over 1000 nM.

Take `Cc1cccc2[nH]c(C(=O)N3CCn4ncc(N5CC(C)(C)OC5=O)c4C3)cc12` [Compound 2.14]: the EC50 is under 100 nM. With `CC1(C)CN(c2cnn3c2CN(C(=O)c2cc4cccc(Cl)c4[nH]2)CC3)C(=O)O1` [Compound 2.9] the figure was 100 to 1000 nM; with `CC1(C)CN(c2cnn3c2CN(C(=O)c2cc4ccc(C#N)cc4[nH]2)CC3)C(=O)O1` [Compound 2.11], 100 to 1000 nM; with `COc1ccc2cc(C(=O)N3CCn4ncc(N5CC(C)(C)OC5=O)c4C3)[nH]c2c1` [Compound 2.13], 100 to 1000 nM. With `COc1ccc2[nH]c(C(=O)N3CCn4ncc(N5CC(C)(C)OC5=O)c4C3)cc2c1` [Compound 2.10] the figure was over 1000 nM. With `CC1(C)CCN(c2cnn3c2CN(C(=O)c2cc4ccccc4[nH]2)CC3)C1=O` [Compound 1.1, 1-(5-(1H-indole-2-carbonyl)-4,5,6,7-tetrahydropyrazolo[1,5-a]pyrazin-3-yl)-3,3-dimethylpyrrolidin-2-one] the figure was over 1000 nM. In the case of `CC1(C)CN(c2cnn3c2CN(C(=O)c2cc4c(Cl)cccc4[nH]2)CC3)C(=O)O1` [Compound 2.20], the EC50 was under 100 nM.

In the case of `CC1(C)CN(c2cnn3c2CN(C(=O)c2cc4cnc(Cl)cc4[nH]2)CC3)C(=O)O1` [Compound 2.21], the EC50 was in the range of 100 to 1000 nM. As for `Cc1c(C(=O)N2CCn3ncc(N4CC(C)(C)OC4=O)c3C2)[nH]c2ccccc12` [Compound 2.2], the figure is over 1000 nM; as for `CC1(C)CN(c2cnn3c2CN(C(=O)c2cc4ccc(F)cc4[nH]2)CC3)C(=O)O1` [Compound 2.7], under 100 nM; as for `CC1(C)COC(=O)N(c2cnn3c2CN(C(=O)c2cc4ccccc4[nH]2)CC3)C1` [Compound 3.3], 100 to 1000 nM. With `COC[C@H]1CN(c2cnn3c2CN(C(=O)c2cc4ccccc4[nH]2)CC3)C(=O)O1` [Compound 3.1, (R)-3-(5-(1H-indole-2-carbonyl)-4,5,6,7-tetrahydropyrazolo[1,5-a]pyrazin-3-yl)-5-(methoxymethyl)oxazolidin-2-one] the figure was under 100 nM; with `CC1(C)CN(c2cnn3c2CN(C(=O)c2cc4ccccc4[nH]2)CC3)C(=O)CO1` [Compound 1.5], 100 to 1000 nM.

Regarding `CC1(C)CN(c2cnn3c2CN(C(=O)c2cc4cc(Cl)ccc4[nH]2)CC3)C(=O)O1` [Compound 2.16], the EC50 fell in the range of 100 to 1000 nM.

Regarding `CC1(C)CC(=O)N(c2cnn3c2CN(C(=O)c2cc4ccccc4[nH]2)CC3)C1` [Compound 1.2], the EC50 fell in the range of 100 to 1000 nM. As for `CC1(C)CN(c2cnn3c2CN(C(=O)c2[nH]c4ccccc4c2C#N)CC3)C(=O)O1` [Compound 2.4], the figure is over 1000 nM. In the case of `Cc1ccc2cc(C(=O)N3CCn4ncc(N5CC(C)(C)OC5=O)c4C3)[nH]c2c1` [Compound 2.12], the EC50 was under 100 nM. As for `O=C(c1cc2ccccc2[nH]1)N1CCc2noc(N3CCCCC3=O)c2C1` [Compound 4.1, 1-(5-(1H-indole-2-carbonyl)-4,5,6,7-tetrahydroisoxazolo[4,3-c]pyridin-3-yl)piperidin-2-one], the figure is under 100 nM. For the compound `Cc1ccc2[nH]c(C(=O)N3CCn4ncc(N5CC(C)(C)OC5=O)c4C3)cc2c1` [Compound 2.15], the EC50 lay in the range of 100 to 1000 nM.

With `CC1(C)CN(c2cnn3c2CN(C(=O)c2[nH]c4ccccc4c2Cl)CC3)C(=O)O1` [Compound 2.5], the EC50 was over 1000 nM. As for `COc1cccc2cc(C(=O)N3CCn4ncc(N5CC(C)(C)OC5=O)c4C3)[nH]c12` [Compound 2.19], the figure is over 1000 nM; as for `CC1(C)CN(c2cnn3c2CN(C(=O)c2cc4ccc(Cl)cc4[nH]2)CC3)C(=O)O1` [Compound 2.8], under 100 nM. As for `CC1(C)CN(c2cnn3c2CN(C(=O)c2cc4cc(F)ccc4[nH]2)CC3)C(=O)O1` [Compound 2.6], the figure is under 100 nM. With `CC1(C)CN(c2cnn3c2CN(C(=O)c2cc4ccccc4[nH]2)CC3)C(=O)O1` [Compound 2.1, 3-(5-(1H-indole-2-carbonyl)-4,5,6,7-tetrahydropyrazolo[1,5-a]pyrazin-3-yl)-5,5-dimethyloxazolidin-2-one] the figure was under 100 nM; with `COC[C@@H]1CN(c2cnn3c2CN(C(=O)c2cc4ccccc4[nH]2)CC3)C(=O)O1` [Compound 3.2], 100 to 1000 nM; with `CC1(C)CN(c2cnn3c2CN(C(=O)c2cc4c(F)cccc4[nH]2)CC3)C(=O)O1` [Compound 2.22], under 100 nM.

Values taken from patent US20200407365A1, “INDOLE-2-CARBONYL COMPOUNDS AND THEIR USE FOR THE TREATMENT OF HEPATITIS B” (Novartis AG, priority 2018, published 2020).
